This assay deals with penis. The assay can be described thus: Clinical study: penile temperature change by thermography. Conditions: intra-urethral infusion; FIG. 7. Format: in vivo, human. How it is done: Five (5) healthcare workers of 60 to 69 years old having no early-morning erection were subjected to the study. After obtaining verbal informed consent, the study was carried out from May 2001 through February 2003 as described below.
After keeping the subjects at rest with naked from the waist down for 5 minutes at room temperature of 25° C. and humidity of 60%, temperature of a penis, oxygen saturation in a penile sponge body, and hardness of a penis were measured. The measurement was carried out before administration of the preparation as reference and at 1, 3, 6, 12, 24 and 36 hours after administration, and the value of change (changed value±average error) were recorded. When there was no change at 3 hours after administration, the preparation was considered not effective and measurement thereafter was quitted.
Embrocation: 0.5 ml of each preparation was applied all over to a glans and a penis.
The relevant infusion apparatus was inserted into a urethra, and 0.5 ml of the preparation was infused by rotating a cylinder.
Temperature rise reflects increased blood-flow. So, penile temperature was measured by a thermography (Thermo Tracer TH5108, NEC San-ei Instruments, Ltd.). As this instrument can display a measurement site and temperature of the site numerically on a screen, measurements before and after administrations were possible to be performed at the same position. […]

The structures appear in SMILES notation.

As to `CC#CCC(C)[C@H](O)/C=C/[C@@H]1[C@H]2c3cccc(CCCC(=O)[O-])c3O[C@H]2C[C@H]1O.[Na+]` (relative stereo) [beraprost sodium, (+)-(1R*,2R*,3aS*,8bS*)-2,3,3a,8b-tetrahydro-2-hydroxy-1-[(e)-(3S*)-3-hydroxy-4-methyl-1-octene-6-ynyl]-1H-cyclopenta [b]benzofuran-5-butanoic acid sodium salt], the “level and duration of temperature increase” value was “low”.

The values are drawn from patent US20090062382A1, “EXTERNAL PREPARATION FOR IMPROVING COITAL FUNCTION” (CARDIOVASCULAR INSTITUTE, LTD., priority 2003, published 2009).
